Measured values from patent publication US8609635B2, “Fused tricyclic silyl compounds and methods of use thereof for the treatment of viral diseases” (priority 2010, dated 2013).
Read-outs that look alike come from different tables or passages of the source.

Tests used:
HCV replicon gt1b_con1 = experiment: Cell-based HCV replicon assay (TaqMan), genotype 1b (Con1); details: replicon 1b (Con1), replicon RNA by TaqMan, day 3
Protocol: (§1) Measurement of inhibition by compounds of the present invention was performed using the HCV replicon system. Several different replicons encoding different HCV genotypes or mutations were used. In addition, potency measurements were made using different formats of the replicon assay, including different ways of measurements and different plating formats. See Jan M. Vrolijk et al., A replicons-based bioassay for the measurement of interferons in patients with chronic hepatitis C, 110 J. VIROLOGICAL METHODS 201 (2003); Steven S. Carroll et al., Inhibition of Hepatitis C Virus RNA Replication by 2′-Modified Nucleoside Analogs, 278(14) J. BIOLOGICAL […] 11979 (2003). However, the underlying principles are common to all of these determinations, and are outlined below.
(§2) Compounds of the present invention were assayed for cell-based anti-HCV activity using the following protocol. Replicon cells were seeded at 5000 cells/well in 96-well collagen I-coated Nunc plates in the presence of the test compound. Various concentrations of test compound, typically in 10 serial 2-fold dilutions, were added to the assay mixture, with the starting concentration ranging from 250 μM to 1 μM. The final concentration of DMSO was 0.5%, fetal bovine serum was 5%, in the assay media. Cells were harvested on day 3 by the addition of 1× cell lysis buffer (Ambion cat #8721). The replicon RNA level was measured using real time PCR (TaqMan® assay). The amplicon was located in 5B. The PCR primers were: 5B.2F, […] (SEQ. ID NO. 1); 5B.2R, […] (SEQ. ID NO. 2); the probe sequence was FAM-labeled […] (SEQ. ID NO. 3). GAPDH RNA was used as endogenous control and was amplified in the same reaction as NS5B (multiplex PCR) using primers and VIC-labeled probe recommended by the manufacturer (PE Applied Biosystem). The real-time RT-PCR reactions were run on ABI PRISM 7900HT Sequence Detection System using the following program: 48° C. for 30 minutes, 95° C. for 10 minutes, 40 cycles of 95° C. for 15 sec, 60° C. for 1 minute. The ΔCT values (CT5B-CTGAPDH) were plotted against the concentration of test compound and fitted to the sigmoid dose-response model using XLfit4 (MDL). […] Alternatively, to quantitate the absolute amount of replicon RNA, a standard curve was established by including serially diluted T7 transcripts of replicon RNA in the Taqman assay. All TaqMan® reagents were from PE Applied Biosystems. Such an assay procedure was described in detail in e.g. Malcolm et al., Antimicrobial Agents and Chemotherapy 50: 1013-1020 (2006).
(§3) Wherein gt1a_H77 was prepared as described in Yi et al., J Virol. 2004, 78(15):7904-15; gt1b_con1 was prepared as described in Lohmann et al., Science 1999, 285(5424):110-3; and gt2a_JFH was prepared as described in Kato et al., Gastroenterology. 2003, 125(6):1808-17. Chimeric replicons contain NS5A from patient isolates of genotypes 1a, 1b, 2b, 3a and 4a as indicated.

HCV replicon gt1a_H77 = experiment: Cell-based HCV replicon assay (TaqMan), genotype 1a (H77); details: replicon 1a (H77), replicon RNA by TaqMan, day 3
Protocol: as §1, §2, §3

[1] = system: HCV chimeric replicon with NS5A of genotype 3a (NC00982); experiment: Cell-based HCV replicon assay (TaqMan), chimeric replicon genotype 3a (NC00982); details: replicon RNA by TaqMan, day 3
Protocol: as §1, §2, §3

HCV replicon gt2a_JFH = experiment: Cell-based HCV replicon assay (TaqMan), genotype 2a (JFH); details: replicon 2a (JFH), replicon RNA by TaqMan, day 3
Protocol: as §1, §2, §3

[2] = system: HCV replicon 1a (Y93H) mutant; experiment: Cell-based HCV replicon assay (TaqMan), genotype 1a mutant Y93H; details: read-out: HCV replicon EC50 1a (Y93H)
Protocol: as §1, §2, §3

[3] = Hepatitis C virus, 72 h, read-out: HCV replicon EC50 3a (NC00982), chimeric replicon 3a (NC00982)

SMILES | EC50 (HCV replicon gt1b_con1; Hepatitis C virus, 72 h) [pM] | EC50 (HCV replicon gt1a_H77; Hepatitis C virus, 72 h) [nM] | EC50 [1, 3] [nM] | EC50 (HCV replicon gt2a_JFH; Hepatitis C virus, 72 h) [nM] | EC50 ([2]; Hepatitis C virus, 72 h) [nM] | EC50 (HCV replicon gt1b_con1) [pM] | EC50 (HCV replicon gt1a_H77) [nM] | EC50 ([1]; chimeric replicon 3a (NC00982), read-out: HCV replicon EC50 3a (NC00982)) [nM] | EC50 (HCV replicon gt2a_JFH) [nM] | EC50 ([2]; replicon 1a mutant Y93H, replicon RNA by TaqMan, day 3) [nM]
COC(=O)NC(C(=O)N1C[Si](C)(C)CC1c1ncc(-c2ccc(-c3ccc4c(ccc5nc([C@@H]6CCCN6C(=O)C(NC(=O)OC)C(C)C)[nH]c54)c3)cc2)[nH]1)C(C)C (some centres unmarked) [Compound 2] | 4 | 0.01 | 0.05 | 0.019 | – | – | – | – | – | –
COC(=O)NC(C(=O)N1C2CCC(C2)C1c1ncc(-c2ccc(-c3ccc4c(ccc5nc([C@@H]6C[Si](C)(C)CN6C(=O)C(NC(=O)OC)C(C)C)[nH]c54)c3)cc2)[nH]1)C(C)C (some centres unmarked) [Compound 15] | 11 | 0.088 | 1 | 0.12 | 131 | – | – | – | – | –
COC(=O)NC(C(=O)N1C[Si](C)(C)CC1c1ncc(-c2ccc(-c3ccc4c(ccc5nc([C@@H]6C7CCC(C7)N6C(=O)C(NC(=O)OC)C(C)C)[nH]c54)c3)cc2)[nH]1)C(C)C (some centres unmarked) [Compound 16] | 4 | 0.04 | 0.23 | 0.06 | 146 | – | – | – | – | –
COC(=O)NC(C(=O)N1C[Si](C)(C)CC1c1ncc(-c2ccc(-c3ccc4c(ccc5nc([C@@H]6CCCN6C(=O)C(NC(=O)OC)C(C)C)[nH]c54)c3)s2)[nH]1)C(C)C (some centres unmarked) [Compound 20] | 4 | 0.14 | 0.26 | 0.3 | 921 | – | – | – | – | –
COC(=O)N[C@H](C(=O)N1CC(F)(F)C[C@H]1c1ncc(-c2ccc3oc(-c4ccc5c(ccc6nc([C@@H]7C[Si](C)(C)CN7C(=O)[C@@H](NC(=O)OC)C(C)C)[nH]c65)c4)cc3c2)[nH]1)C(C)C [Compound 42] | – | – | – | – | – | 5 | 0.012 | 11.4 | > 10 | 103
COC(=O)N[C@H](C(=O)N1C[Si](C)(C)C[C@H]1c1ncc(-c2ccc(-c3ccc4c(ccc5nc([C@@H]6CCCN6C(=O)[C@@H](NC(=O)OC)C(C)C)[nH]c54)c3)cc2OCCO)[nH]1)C(C)C [Compound 44] | 7 | > 1 | 31 | > 10 | 1390 | – | – | – | – | –
COC(=O)N[C@H](C(=O)N1C[Si](C)(C)C[C@H]1c1ncc(-c2ccc(-c3ccc4c(ccc5nc([C@@H]6CCCN6C(=O)[C@@H](NC(=O)OC)C(C)C)[nH]c54)c3)cc2OCCOC(C)=O)[nH]1)C(C)C [Compound 45] | 9 | > 1 | 52 | > 10 | 2640 | – | – | – | – | –
COC(=O)N[C@H](C(=O)N1C[Si](C)(C)C[C@H]1c1ncc(-c2ccc(-c3ccc4c(ccc5nc([C@@H]6CCCN6C(=O)[C@@H](NC(=O)OC)C(C)C)[nH]c54)c3)cc2OC)[nH]1)C(C)C [Compound 46] | 4 | 0.26 | 2.4 | 0.6 | 497 | – | – | – | – | –
COC(=O)N[C@H](C(=O)N1C[Si](C)(C)C[C@H]1c1ncc(-c2ccc(-c3ccc4c(ccc5nc([C@@H]6CCCN6C(=O)[C@@H](NC(=O)OC)C(C)C)[nH]c54)c3)cc2C2CC2)[nH]1)C(C)C [Compound 47] | 7 | 0.4 | 5.5 | 1.7 | 1600 | – | – | – | – | –
COC(=O)N[C@H](C(=O)N1C[Si](C)(C)C[C@H]1c1ncc(-c2ccc(-c3ccc4c(ccc5nc([C@@H]6CCCN6C(=O)[C@@H](NC(=O)OC)C(C)C)[nH]c54)c3)cc2F)[nH]1)C(C)C [Compound 48] | 4 | 0.05 | 0.25 | 0.07 | 329 | – | – | – | – | –
COC(=O)N[C@H](C(=O)N1C[Si](C)(C)C[C@H]1c1ncc(-c2ccc(-c3ccc4c(ccc5nc([C@@H]6CCCN6C(=O)[C@@H](NC(=O)OC)C(C)C)[nH]c54)c3)nc2)[nH]1)C(C)C [Compound 49] | 14 | 0.04 | 0.2 | 0.037 | 185 | – | – | – | – | –
COC(=O)N[C@H](C(=O)N1C[Si](C)(C)C[C@H]1c1ncc(-c2ccc(-c3ccc4c(ccc5nc([C@@H]6CCCN6C(=O)[C@@H](NC(=O)OC)C(C)C)[nH]c54)c3)cc2-c2cccs2)[nH]1)C(C)C [Compound 50] | 8 | 0.505 | 3 | 1.62 | 1150 | – | – | – | – | –
